Assay results from ChEMBL document CHEMBL1201862, “PubChem BioAssay data set” (2004).
The source made the active and inactive calls.

Experiments:
[1] = inhibitors of TRPM1-promoter reporter in SK-MEL-5 – cell-based, luciferase, dry powder, set 9, MITF inhibitor project, dose response (AID 651588); type: functional
[2] = growth inhibition of SK-MEL-5 melanoma cells – cell-based, CellTiter-Glo luminescence, dry powder, set 8, orthogonal assay for MITF inhibitor project, dose response (AID 651586); type: functional
[3] = MITF Measured in Cell-Based System Using Plate Reader - 2084-01_Inhibitor_Dose_DryPowder_Activity_Set6.; type: functional
[4] = molecular target: Bifunctional protein GlmU (Mycobacterium tuberculosis, UniProt P9WMN3); assay: Inhibitors of Mycobacterial Glucosamine-1-phosphate acetyl transferase (GlmU). Secondary screen.; design: species or system Mycobacterium tuberculosis H37Rv
[5] = molecular target: T1, Alkaline phosphatase, tissue-nonspecific isozyme (Homo sapiens, UniProt P05186); assay: activation of tissue-nonspecific alkaline phosphatase – biochemical, TNAP isozyme, mouse IAP uHTS hits, selectivity assay for mouse IAP activator project, dose response (AID 488880); type: functional
T1 sequence (P05186 whole entry): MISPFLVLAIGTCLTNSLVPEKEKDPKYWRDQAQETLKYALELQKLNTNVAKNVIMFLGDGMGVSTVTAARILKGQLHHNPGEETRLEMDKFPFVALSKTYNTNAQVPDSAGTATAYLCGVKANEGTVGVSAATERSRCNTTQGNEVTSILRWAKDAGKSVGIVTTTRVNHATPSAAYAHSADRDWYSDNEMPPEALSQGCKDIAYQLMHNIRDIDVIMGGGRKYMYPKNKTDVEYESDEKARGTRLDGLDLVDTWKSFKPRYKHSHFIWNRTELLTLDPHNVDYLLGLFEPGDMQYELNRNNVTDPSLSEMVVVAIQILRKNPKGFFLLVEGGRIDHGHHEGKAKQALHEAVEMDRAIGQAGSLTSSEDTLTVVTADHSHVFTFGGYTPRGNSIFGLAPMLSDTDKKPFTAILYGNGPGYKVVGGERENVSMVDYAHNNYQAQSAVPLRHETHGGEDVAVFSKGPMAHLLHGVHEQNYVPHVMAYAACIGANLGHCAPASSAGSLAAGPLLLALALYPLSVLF

[6] = molecular target: T2, RNA-binding protein pos-1 (Caenorhabditis elegans, UniProt G5EF15); assay: disruptors of C. elegans POS-1 RNA interaction – biochemical, fluorescence polarization, dose response (AID 1964);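 also: purified POS-1 fused to maltose binding protein made in E. coli; potency of compounds blocking POS-1 binding to fluorescent RNA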
T2 sequence (G5EF15 whole entry): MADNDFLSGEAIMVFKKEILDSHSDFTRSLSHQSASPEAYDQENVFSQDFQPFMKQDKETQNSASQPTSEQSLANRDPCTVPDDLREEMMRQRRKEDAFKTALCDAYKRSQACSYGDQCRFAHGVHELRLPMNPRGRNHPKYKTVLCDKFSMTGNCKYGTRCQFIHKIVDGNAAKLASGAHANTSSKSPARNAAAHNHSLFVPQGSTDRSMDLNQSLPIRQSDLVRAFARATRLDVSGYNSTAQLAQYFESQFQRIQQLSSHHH

[7] = system: Streptococcus sp. 'group A'; assay: Streptococcus pyogenes SK(-)GAS viability under kanamycin – luminescence, BacTiterGlo, confirmation, counter-screen for streptokinase expression inhibitor project, dose response (AID 1900); type: functional, organism-based
[8] = HPDE-C7 pancreatic duct cell viability loss – fluorescence, HTS (AID 430); type: functional, cell-based; settings: Homo sapiens
[9] = viability of PTEN-deleted HCT116 cells – cell-based, HCT116 PTEN knockout, dose response (AID 1047); type: functional;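 also: HCT116 colon tumor cells with PTEN knocked out; cells exposed to compound for 60 hours before readout; potency for loss of cell viability measured by luminescence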
[10] = Counterscreen for antagonists of the orexin 1 receptor (OX1R; HCRTR1): Fluorescence-based cell-based high throughput dose response assay to identify antagonists of the parental CHO cell line. [Related pubchem assays (depositor defined):AID434989, AID435008, AID463079, AID485270, AID492963, AID492964, AID492965, AID493232, AID504699, AID504701]; type: functional
[11] = molecular target: cGMP-dependent protein kinase 1 (Homo sapiens, UniProt Q13976); type: functional;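 also: value from a kinome panel screen with PRKG1 as the panel member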
[12] = molecular target: Serine/threonine-protein kinase PLK4 (Homo sapiens, UniProt O00444); type: functional;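 also: PLK4 measured as one member of a kinome-wide kinase profiling panel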
[13] = molecular target: Serine/threonine-protein kinase D3 (Homo sapiens, UniProt O94806); type: functional;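 also: determined within a kinase panel screen, with PRKCN as the panel member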
[14] = molecular target: Testis-specific serine/threonine-protein kinase 2 (Homo sapiens, UniProt Q96PF2); type: functional;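 also: part of the Navigating the Kinome panel, target entry STK22B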
[15] = molecular target: Tyrosine-protein kinase Lck (Homo sapiens, UniProt P06239); type: functional;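 also: lck was assayed as one member of a kinase panel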
[16] = molecular target: Death-associated protein kinase 3 (Homo sapiens, UniProt O43293); type: functional;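 also: measured as one member of a kinome-wide profiling panel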
SRSF protein kinase 1 = SRSF protein kinase 1 (Homo sapiens, UniProt Q96SB4); type: functional;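 also: measured as one member of a kinome-wide kinase profiling panel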
[17] = molecular target: MAP kinase-activated protein kinase 5 (Homo sapiens, UniProt Q8IW41); type: functional;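 also: measured as one member of a kinome panel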
[18] = molecular target: MAP kinase-activated protein kinase 2 (Homo sapiens, UniProt P49137); type: functional;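 also: measured as one member of a kinome-wide kinase panel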
[19] = molecular target: Casein kinase I isoform gamma-1 (Homo sapiens, UniProt Q9HCP0); type: functional;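 also: measured as the CSNK1G1 member of a kinome profiling panel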
[20] = molecular target: Tyrosine-protein kinase Lyn (Homo sapiens, UniProt P07948); type: functional;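 also: lyn as one member of a kinase panel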
[21] = molecular target: Testis-specific serine/threonine-protein kinase 1 (Homo sapiens, UniProt Q9BXA7); type: functional
[22] = molecular target: Homeodomain-interacting protein kinase 2 (Homo sapiens, UniProt Q9H2X6); type: functional;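 also: measured within a kinome-wide kinase profiling panel, HIPK2 being one panel member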
[23] = molecular target: Protein kinase C gamma type (Homo sapiens, UniProt P05129); type: functional
[24] = molecular target: Mitogen-activated protein kinase kinase kinase kinase 2 (Homo sapiens, UniProt Q12851); type: functional;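 also: measured as one member of a kinome-wide kinase panel, with MAP4K2 as the panel entry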
[25] = molecular target: MAP kinase-interacting serine/threonine-protein kinase 2 (Homo sapiens, UniProt Q9HBH9); type: functional
Misshapen-like kinase 1 = Misshapen-like kinase 1 (Homo sapiens, UniProt Q8N4C8); type: functional;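 also: kinome panel screen with MINK as the panel member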
[26] = molecular target: Tyrosine-protein kinase Fyn (Homo sapiens, UniProt P06241); type: functional
[27] = molecular target: Homeodomain-interacting protein kinase 4 (Homo sapiens, UniProt Q8NE63); type: functional
[28] = molecular target: Serine/threonine-protein kinase PLK1 (Homo sapiens, UniProt P53350); type: functional;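 also: PLK1 measured as one member of a kinome-wide profiling panel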
[29] = molecular target: Lymphokine-activated killer T-cell-originated protein kinase (Homo sapiens, UniProt Q96KB5); type: functional;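 also: value comes from a kinase panel screen in which TOPK was one of the panel members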
[30] = molecular target: Leukocyte tyrosine kinase receptor (Homo sapiens, UniProt P29376); assay: Navigating the Kinome. Panel member name: LTK; type: functional
[31] = molecular target: Serine/threonine-protein kinase 3 (Homo sapiens, UniProt Q13188); type: functional;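 also: measured as one member of a kinome-wide kinase panel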
Serine/threonine-protein kinase 3, sequence (Q13188 whole entry): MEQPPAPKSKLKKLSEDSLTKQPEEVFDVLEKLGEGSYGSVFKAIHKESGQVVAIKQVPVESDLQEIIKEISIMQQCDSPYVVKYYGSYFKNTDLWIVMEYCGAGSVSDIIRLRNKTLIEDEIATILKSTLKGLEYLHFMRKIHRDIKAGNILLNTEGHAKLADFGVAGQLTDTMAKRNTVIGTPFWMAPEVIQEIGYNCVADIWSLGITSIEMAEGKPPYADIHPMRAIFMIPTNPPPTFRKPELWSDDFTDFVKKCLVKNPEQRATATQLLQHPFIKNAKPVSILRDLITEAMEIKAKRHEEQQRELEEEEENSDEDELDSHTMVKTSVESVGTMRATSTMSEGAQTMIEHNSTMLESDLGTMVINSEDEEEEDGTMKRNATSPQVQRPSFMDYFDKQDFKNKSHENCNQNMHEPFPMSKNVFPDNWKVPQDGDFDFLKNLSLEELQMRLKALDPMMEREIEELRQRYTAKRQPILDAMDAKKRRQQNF

MAP kinase-activated protein kinase 2, sequence (P49137 whole entry, canonical isoform): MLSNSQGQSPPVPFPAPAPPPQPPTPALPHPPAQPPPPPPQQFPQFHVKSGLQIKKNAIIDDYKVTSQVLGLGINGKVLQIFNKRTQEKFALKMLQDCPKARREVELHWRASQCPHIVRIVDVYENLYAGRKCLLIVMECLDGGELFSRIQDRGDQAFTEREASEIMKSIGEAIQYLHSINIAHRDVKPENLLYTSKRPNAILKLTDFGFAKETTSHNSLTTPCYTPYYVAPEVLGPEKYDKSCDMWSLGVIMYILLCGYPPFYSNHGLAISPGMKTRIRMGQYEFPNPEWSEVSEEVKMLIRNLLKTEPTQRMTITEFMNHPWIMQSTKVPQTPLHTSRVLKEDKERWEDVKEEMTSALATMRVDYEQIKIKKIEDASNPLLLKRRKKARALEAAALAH
Serine/threonine-protein kinase D3, sequence (O94806 whole entry): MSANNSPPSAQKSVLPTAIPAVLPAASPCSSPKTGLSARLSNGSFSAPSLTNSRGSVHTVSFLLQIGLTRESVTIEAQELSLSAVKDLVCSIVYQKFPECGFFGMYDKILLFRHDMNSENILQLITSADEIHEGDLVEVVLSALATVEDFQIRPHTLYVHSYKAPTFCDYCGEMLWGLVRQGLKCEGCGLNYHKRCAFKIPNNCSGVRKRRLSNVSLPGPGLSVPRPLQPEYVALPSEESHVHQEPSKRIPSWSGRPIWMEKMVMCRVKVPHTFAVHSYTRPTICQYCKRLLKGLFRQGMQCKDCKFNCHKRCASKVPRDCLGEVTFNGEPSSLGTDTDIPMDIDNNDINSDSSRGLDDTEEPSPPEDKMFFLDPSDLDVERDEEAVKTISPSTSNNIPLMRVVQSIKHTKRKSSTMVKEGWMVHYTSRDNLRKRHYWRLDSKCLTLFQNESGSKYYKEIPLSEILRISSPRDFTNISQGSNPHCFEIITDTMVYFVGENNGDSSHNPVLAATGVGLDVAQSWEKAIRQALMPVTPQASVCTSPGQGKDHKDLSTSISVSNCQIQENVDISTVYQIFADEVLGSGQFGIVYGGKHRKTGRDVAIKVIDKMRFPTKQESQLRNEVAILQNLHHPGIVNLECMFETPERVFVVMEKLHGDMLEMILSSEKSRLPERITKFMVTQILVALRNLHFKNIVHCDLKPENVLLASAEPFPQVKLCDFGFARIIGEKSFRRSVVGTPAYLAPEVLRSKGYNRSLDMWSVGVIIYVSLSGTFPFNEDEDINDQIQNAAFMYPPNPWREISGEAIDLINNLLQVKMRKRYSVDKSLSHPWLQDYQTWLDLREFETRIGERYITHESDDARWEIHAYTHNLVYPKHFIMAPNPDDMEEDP
Tyrosine-protein kinase Lck, sequence (P06239 whole entry): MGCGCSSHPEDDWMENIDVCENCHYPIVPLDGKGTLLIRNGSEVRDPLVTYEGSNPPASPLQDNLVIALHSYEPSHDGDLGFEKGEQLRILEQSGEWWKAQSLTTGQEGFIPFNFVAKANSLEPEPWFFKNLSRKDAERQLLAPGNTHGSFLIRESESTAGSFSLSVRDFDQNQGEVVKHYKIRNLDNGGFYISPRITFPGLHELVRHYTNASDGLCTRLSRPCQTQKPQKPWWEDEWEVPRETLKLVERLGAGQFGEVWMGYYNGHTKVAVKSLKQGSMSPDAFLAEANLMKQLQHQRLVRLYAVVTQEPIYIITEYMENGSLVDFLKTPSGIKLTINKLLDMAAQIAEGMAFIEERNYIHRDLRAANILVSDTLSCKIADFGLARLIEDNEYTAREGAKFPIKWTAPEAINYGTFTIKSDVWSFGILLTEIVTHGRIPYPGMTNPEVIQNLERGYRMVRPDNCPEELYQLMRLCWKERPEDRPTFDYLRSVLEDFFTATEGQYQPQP
MAP kinase-interacting serine/threonine-protein kinase 2, sequence (Q9HBH9 whole entry): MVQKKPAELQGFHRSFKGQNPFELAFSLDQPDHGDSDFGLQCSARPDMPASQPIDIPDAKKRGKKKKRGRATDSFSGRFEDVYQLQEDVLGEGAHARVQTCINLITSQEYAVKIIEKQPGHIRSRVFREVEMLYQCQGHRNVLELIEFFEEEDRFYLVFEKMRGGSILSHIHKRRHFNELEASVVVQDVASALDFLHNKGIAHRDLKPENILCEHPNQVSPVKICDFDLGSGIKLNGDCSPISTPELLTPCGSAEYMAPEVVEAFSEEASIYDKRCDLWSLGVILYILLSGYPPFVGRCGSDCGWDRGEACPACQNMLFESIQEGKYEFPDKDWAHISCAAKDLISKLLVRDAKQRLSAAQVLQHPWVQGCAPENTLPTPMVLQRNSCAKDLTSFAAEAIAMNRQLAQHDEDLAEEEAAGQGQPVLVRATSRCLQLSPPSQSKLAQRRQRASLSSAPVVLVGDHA
MAP kinase-activated protein kinase 5, sequence (Q8IW41 whole entry): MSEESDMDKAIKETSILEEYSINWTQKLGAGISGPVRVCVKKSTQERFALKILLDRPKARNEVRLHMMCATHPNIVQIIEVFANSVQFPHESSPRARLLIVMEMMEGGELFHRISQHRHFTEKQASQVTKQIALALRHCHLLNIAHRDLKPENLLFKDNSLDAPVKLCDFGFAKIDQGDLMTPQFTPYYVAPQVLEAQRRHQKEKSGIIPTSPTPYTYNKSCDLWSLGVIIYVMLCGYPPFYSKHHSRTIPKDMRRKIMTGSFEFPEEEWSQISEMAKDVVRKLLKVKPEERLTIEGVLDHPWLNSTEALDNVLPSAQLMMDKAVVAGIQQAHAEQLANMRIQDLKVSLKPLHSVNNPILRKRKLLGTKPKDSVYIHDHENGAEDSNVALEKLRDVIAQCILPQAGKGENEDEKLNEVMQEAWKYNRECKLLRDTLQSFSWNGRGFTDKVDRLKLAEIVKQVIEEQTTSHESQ
Homeodomain-interacting protein kinase 2, sequence (Q9H2X6 whole entry): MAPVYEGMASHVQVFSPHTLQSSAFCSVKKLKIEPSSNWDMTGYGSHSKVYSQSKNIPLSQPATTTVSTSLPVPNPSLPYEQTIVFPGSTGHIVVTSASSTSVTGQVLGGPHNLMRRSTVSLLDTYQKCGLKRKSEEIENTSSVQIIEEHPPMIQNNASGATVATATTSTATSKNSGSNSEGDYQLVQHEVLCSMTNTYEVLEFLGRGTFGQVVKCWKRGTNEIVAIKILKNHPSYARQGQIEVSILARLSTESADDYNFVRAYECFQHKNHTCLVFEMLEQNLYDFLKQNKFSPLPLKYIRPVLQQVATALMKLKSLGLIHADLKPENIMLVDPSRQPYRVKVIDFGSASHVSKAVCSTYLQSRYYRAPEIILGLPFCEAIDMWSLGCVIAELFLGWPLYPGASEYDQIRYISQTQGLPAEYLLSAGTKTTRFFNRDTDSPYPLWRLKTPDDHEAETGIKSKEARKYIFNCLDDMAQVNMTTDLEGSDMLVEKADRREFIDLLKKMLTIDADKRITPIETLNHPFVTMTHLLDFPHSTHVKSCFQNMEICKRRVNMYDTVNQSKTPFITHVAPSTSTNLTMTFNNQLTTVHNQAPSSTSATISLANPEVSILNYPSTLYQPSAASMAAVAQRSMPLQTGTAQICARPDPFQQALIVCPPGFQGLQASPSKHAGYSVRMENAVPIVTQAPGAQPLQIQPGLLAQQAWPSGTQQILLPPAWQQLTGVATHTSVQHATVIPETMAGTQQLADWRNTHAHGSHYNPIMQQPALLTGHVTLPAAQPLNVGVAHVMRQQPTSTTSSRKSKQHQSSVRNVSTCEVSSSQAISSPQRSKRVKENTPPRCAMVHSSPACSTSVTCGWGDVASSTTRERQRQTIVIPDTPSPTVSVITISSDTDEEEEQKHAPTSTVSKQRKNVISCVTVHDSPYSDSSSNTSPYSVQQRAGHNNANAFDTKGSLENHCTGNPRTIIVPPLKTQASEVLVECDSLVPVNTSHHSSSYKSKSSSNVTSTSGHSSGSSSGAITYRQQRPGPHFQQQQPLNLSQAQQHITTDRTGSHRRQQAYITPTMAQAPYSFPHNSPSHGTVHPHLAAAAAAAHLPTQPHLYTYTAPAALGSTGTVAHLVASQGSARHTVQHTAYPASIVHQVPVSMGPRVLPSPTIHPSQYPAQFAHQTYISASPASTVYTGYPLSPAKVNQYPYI
Testis-specific serine/threonine-protein kinase 2, sequence (Q96PF2 whole entry): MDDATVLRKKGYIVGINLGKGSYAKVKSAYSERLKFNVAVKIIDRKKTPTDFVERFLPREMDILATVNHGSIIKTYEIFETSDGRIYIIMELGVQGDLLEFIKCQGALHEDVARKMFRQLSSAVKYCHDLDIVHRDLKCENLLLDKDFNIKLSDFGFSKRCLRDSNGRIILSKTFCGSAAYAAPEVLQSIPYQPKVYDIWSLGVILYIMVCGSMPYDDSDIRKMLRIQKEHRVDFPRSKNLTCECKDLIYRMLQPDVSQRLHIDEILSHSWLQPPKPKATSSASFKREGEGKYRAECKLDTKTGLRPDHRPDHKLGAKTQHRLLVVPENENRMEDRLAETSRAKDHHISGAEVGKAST

C=CCNC1=C(Cl)C(=O)c2ccccc2C1=O
AC50 [1]: 5.58 µM (active) | AC50 [2]: 4.58 µM (active) | AC50 [3]: 1.56 µM (active)

CS(=O)(=O)c1ccc2c(c1)SC1=NC(=O)/C(=C/c3ccc(O)c(O)c3)C(=N)N12
IC50 [4]: 159 µM (active) | EC50 [5]: 77.5 µM (active)

CCOC(=O)C(C(=O)OCC)c1cc(Br)c2noc3c2c1C(=O)c1ccccc1-3
EC50 [6]: 9.23 µM (active) | EC50 [7]: 2.9 µM (active) | EC50 [8]: 3.03 µM (active) | EC50 [9]: 10.2 µM (active)

CN(C)c1ccc(-c2nnc(-c3cccs3)o2)cc1
IC50 [10]: > 49.7 µM (inactive)

COc1ccc(C(=O)Nc2n[nH]c3ccc(-c4cn(Cc5ccccc5)nn4)cc23)cc1OC
Ki [11]: 0.631 µM (active) | Ki [12]: 0.0794 µM (active) | Ki [13]: 1.58 µM (active) | Ki [14]: 0.0794 µM (active) | Ki [15]: 2.51 µM (active) | Ki [16]: 0.0316 µM (active) | Ki (SRSF protein kinase 1): 1.58 µM (active) | Ki [17]: 1.26 µM (active) | Ki [18]: 2 µM (active) | Ki [19]: 0.0251 µM (active) | Ki [20]: 0.501 µM (active) | Ki [21]: > 1.58 µM (inactive) | Ki [22]: 0.0251 µM (active) | Ki [23]: 0.126 µM (active) | Ki [24]: 0.398 µM (active) | Ki [25]: 3.16 µM (active) | Ki (Misshapen-like kinase 1): 0.251 µM (active) | Ki [26]: 0.251 µM (active) | Ki [27]: 1 µM (active) | Ki [28]: > 7.94 µM (inactive) | Ki [29]: > 10 µM (inactive) | Ki [30]: > 2.51 µM (inactive) | Ki [31]: 0.794 µM (active)
